US10683278B2 (JINAN UNIVERSITY, priority 2015, dated 2020)
Read-outs that look alike come from different tables or passages of the source.

Tests used:
[1] = In vivo pharmacokinetic and bioavailability experiments of rats; parameters: species or system SD rats; details: for bioavailability / AUC(0-inf) / AUC(0-t) / half-life / Cmax / clearance: Sprague-Dawley, rat, plasma; for bioavailability: po, 25 mg/kg, read-out: F (oral bioavailability); for Cmax: read-out: Cmax
Protocol: Pharmacokinetic and bioavailability experiments of rats. SD rats were administered orally (25 mg/kg) and intravenously (2.5 to 5 mg/kg) at a single dose. Animal blood samples were taken at appropriate time points after administration, heparin was added as anticoagulant, and same were centrifuged at 8000 rpm/min for 6 minutes, the supernatant was then taken and stored at −20° C. for HPLC-MS analysis. The proteins in blood samples were precipitated with acetonitrile at 12000 rpm for 10 min, and the supernatant was used for HPCL-MS analysis. Data were fit using DAS2.0 to obtain compartmental model and non-compartmental model parameters, respectively. The oral bioavailability of each compound was calculated according to AUC data.

[2] = target: T1, FLT-3 kinase domain recombinant protein (Homo sapiens, UniProt P36888); test: Inhibition rate on FLT3 kinase (ELISA); type: biochemical; details: two values per compound; for inhibition at 0.01 µM / inhibition at 0.1 µM / inhibition at 1 µM: read-out: Inhibition rate (%) against receptor tyrosine kinase FLT-3
T1 construct: 50 μL FLT-3 kinase domain recombinant protein diluted with reaction buffer to initiate the reaction
T1 sequence (P36888 610-943 limits assumed): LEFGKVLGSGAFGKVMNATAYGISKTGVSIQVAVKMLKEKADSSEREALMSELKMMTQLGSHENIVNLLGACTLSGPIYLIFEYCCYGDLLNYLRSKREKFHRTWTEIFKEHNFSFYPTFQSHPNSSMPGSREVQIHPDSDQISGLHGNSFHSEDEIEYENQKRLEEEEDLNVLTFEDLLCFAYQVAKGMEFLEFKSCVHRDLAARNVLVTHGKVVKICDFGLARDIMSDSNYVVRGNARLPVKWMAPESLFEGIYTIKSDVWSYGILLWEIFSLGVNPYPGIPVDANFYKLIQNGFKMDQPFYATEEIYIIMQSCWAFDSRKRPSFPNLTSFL
Protocol: Conventional enzyme-linked immunosorbent assay (ELISA) method is used, and the specific steps are as follows
12,000 g of compounds were centrifuged for 5 min, DMSO was added to make a 10^−2M stock solution, vortexed uniformly and sonicated for 10 min for standby application, and stored at −40° C. The compounds were diluted from the stock solution with DMSO to 100 times the concentration to be tested (concentration of DMSO in the system being 1%) during the test.
1. The enzyme reaction substrate Poly (Glu, Tyr) 4:1 was diluted to 20 μg/mL with potassium-free PBS (10 mM sodium phosphate buffer, 150 mM NaCl, pH 7.2-7.4), the ELISA plate was coated with same in 125 μL/well, and reacted at 37° C. for 12-16 hours, the liquid in wells was discarded, the plate was washed three times, for 5 minutes each time, with T-PBS (potassium-free PBS with 0.1% Tween-20, 200 μL/well), and the ELISA plate was dried in an oven at 37° C. for 1-2 hours.
2. To each well were added 49 μL of ATP solution diluted with reaction buffer (50 mM HEPES pH 7.4, 50 mM MgCl2, 0.5 mM MnCl2, 0.2 mM Na3VO4, 1 mM DTT), 1 μL of compounds to be tested, and 50 μL FLT-3 kinase domain recombinant protein diluted with reaction buffer to initiate the reaction (two ATP-free control wells are required for each experiment). Subject to a shaker (100 rpm) at 37° C. and reacted for 1 hour. The liquid in wells was discarded, and the plate was washed three times with T-PBS.
3. Antibody PY99 diluent (the antibody was diluted in 1:500 with T-PBS which contains 5 mg/mL BSA) was added in 100 μL/well, subjected same to a shaker at 37° C. and reacted for 0.5 hour. The liquid in wells was discarded, and the plate was washed three times with T-PBS.
4. Horseradish peroxidase labeled goat anti-mouse secondary antibody diluent (the antibody was diluted in 1:2000 with T-PBS which contains 5 mg/ml BSA) was added in 100 μL/well, subjected same to a shaker at 37° C. and reacted for 0.5 hour. The liquid in wells was discarded, and the plate was washed three times with T-PBS.
5. 2 mg/ml of OPD developing solution (diluted with 0.1 M citric acid-sodium citrate buffer which contains 0.03% H2O2 (pH=5.4)) was added in 100 μL/well, and reacted at 25° C. in the dark for 1-10 minutes.
6. 2 M H2SO4 was added in 50 μL/well to stop the reaction, and the reading from the wavelength-adjustable microwell plate ELIASA VERSAmax was performed with a wavelength of 490 nm.

AXL kinase = target: T2, AXL kinase (Homo sapiens, UniProt P30530); test: IC50 test on AXL kinase (Z′-LYTE FRET kinase activity detection); type: biochemical; details: for IC50: Z′-LYTE FRET peptide assay, 1 h reaction
T2 construct: purchased Invitrogen PV4803
T2 sequence (P30530 26-894): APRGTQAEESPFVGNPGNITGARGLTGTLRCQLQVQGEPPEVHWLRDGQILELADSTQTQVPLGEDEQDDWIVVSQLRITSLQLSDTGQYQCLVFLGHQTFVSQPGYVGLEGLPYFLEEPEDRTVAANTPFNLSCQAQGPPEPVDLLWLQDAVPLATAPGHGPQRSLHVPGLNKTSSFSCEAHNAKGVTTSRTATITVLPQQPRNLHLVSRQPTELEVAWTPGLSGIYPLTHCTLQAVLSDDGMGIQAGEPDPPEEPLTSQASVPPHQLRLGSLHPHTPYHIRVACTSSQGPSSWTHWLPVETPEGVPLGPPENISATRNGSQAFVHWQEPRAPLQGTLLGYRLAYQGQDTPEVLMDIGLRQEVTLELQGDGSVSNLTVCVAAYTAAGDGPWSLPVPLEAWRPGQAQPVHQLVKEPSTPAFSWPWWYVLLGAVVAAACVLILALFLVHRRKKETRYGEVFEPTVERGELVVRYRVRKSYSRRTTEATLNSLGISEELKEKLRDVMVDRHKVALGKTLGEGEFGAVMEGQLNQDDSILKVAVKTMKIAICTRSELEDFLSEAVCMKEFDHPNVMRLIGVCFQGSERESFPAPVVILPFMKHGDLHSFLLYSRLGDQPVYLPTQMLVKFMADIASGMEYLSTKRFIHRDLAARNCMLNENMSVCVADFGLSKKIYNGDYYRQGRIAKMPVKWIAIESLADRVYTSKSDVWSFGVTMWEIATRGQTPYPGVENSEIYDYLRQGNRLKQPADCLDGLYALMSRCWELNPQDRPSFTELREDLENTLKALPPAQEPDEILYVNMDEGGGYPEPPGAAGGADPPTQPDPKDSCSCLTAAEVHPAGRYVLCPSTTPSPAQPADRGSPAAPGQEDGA
Method in brief: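 Z′-LYTE FRET readout: after 1 h kinase reaction (AXL, Tyr 2 peptide, ATP, compound dilutions), a 1 h protease step cuts unphosphorylated substrate. Excitation at 400 nm, signals at 445 nm and 520 nm used to derive IC50.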

Molm-13 cells = test: Inhibition of proliferation of Molm-13 cells (CCK-8); type: cell-based; details: Homo sapiens, 72 h, mean±standard deviation of two independent tests
Protocol: [Worded in the source for another cell line; this cell line is reported under the same test.] (§1) 12000 g of compounds were centrifuged for 5 min, DMSO was added to make a 10^−2M stock solution, vortexed uniformly and sonicated for 10 min for standby application, and stored at −40° C. The compounds were diluted from the stock solution with saline to 10 times the concentration to be tested (concentration of DMSO in the system being no more than 0.5%) during the test.
(§2) The inhibitory effect of the compounds on the proliferation of MV4-11 cells was detected using a CCK-8 cell counting kit (Dojindo). The specific steps are as follows: the MV4-11 cells in logarithmic growth phase were seeded into a 96-well culture plate at a suitable density in 90 μL/well, cultured overnight, compounds at different concentrations were then added and acted on cells for 72 hr, and the solvent control group (negative control) was set up. The effect of the compounds on cell proliferation was detected using a CCK-8 cell counting kit (Dojindo) after the compounds had acted on the cells for 72 h. 10 μL of CCK-8 reagent was added to each well, same was placed in an incubator at 37° C. for 2-4 hours, and the reading from the full-wavelength microwell plate ELIASA SpectraMax 190 was performed with a wavelength of 450 nm.
(§3) IC50 value was calculated using a software included with ELIASA by the four-parameter regression.
(§4) IC50 for the inhibition of the compounds on each stain of cells was derived from two independent repeated tests, and the results are shown as the mean±standard deviation.

MV4-11 cells = test: Inhibition of proliferation of MV4-11 cells (CCK-8); type: cell-based; details: Homo sapiens, 72 h, mean±standard deviation of two independent tests
Protocol: as §1, §2, §3, §4

[3] = SD rats, Po, 25 mg/kg single dose
[4] = SD rats, iv, 5 mg/kg single dose

SMILES: COc1cc2ncnc(Oc3ccc(NC(=O)c4cn(-c5ccc(F)cc5)c5cc(N6CCNCC6)c(F)cc5c4=O)cc3F)c2cc1OC [TL4830042, N-(4-(6,7-dimethoxyquinazolin-4-yloxy)-3-fluorophenyl)-6-fluoro-1-(4-fluorophenyl)-4-oxo-7-(piperazin-1-yl)-1,4-dihydroquinoline-3-carboxamide]
- bioavailability [1]: 0.2%
- AUC(0-inf) [1, 3]: 151 ng·h/mL
- AUC(0-t) [1, 3]: 98.9 ng·h/mL
- half-life [1, 3]: 14.5 h
- Cmax [1, 3]: 7.15 ng/mL
- AUC(0-inf) [1, 4]: 15200 ng·h/mL
- AUC(0-t) [1, 4]: 9780 ng·h/mL
- clearance [1, 4]: 5.83 mL/min/kg
- half-life [1, 4]: 15.8 h
- Cmax [1, 4]: 885 ng/mL
- Inhibition rate (%) against receptor tyrosine kinase FLT-3 ([2]; compound 10 nM, 0.01 µM): 40.0%
- inhibition at 0.01 µM ([2]; compound 10 nM): 52.3%
- Inhibition rate (%) against receptor tyrosine kinase FLT-3 ([2]; compound 100 nM, 0.1 µM): 44.5%
- inhibition at 0.1 µM ([2]; compound 100 nM): 53.8%
- Inhibition rate (%) against receptor tyrosine kinase FLT-3 ([2]; compound 1000 nM, 1 µM): 87.0%
- inhibition at 1 µM ([2]; compound 1000 nM): 92.3%
- IC50 (AXL kinase): 38 nM

SMILES: CC(C)(C)c1cc(NC(=O)Nc2ccc(-c3cn4c(n3)sc3cc(OCCN5CCOCC5)ccc34)cc2)no1 [AC220, reference compound]
- IC50 (Molm-13 cells): 19.5 ± 2.7 nM
- IC50 (MV4-11 cells): < 2 nM

SMILES: CCc1ccc2c(c1)c(=O)c(C(=O)Nc1ccc(Oc3ncnc4cc(OCCCOC)c(OC)cc34)c(F)c1)c(C)n2C [TL4830073, 6-ethyl-N-(3-fluoro-4-((6-methoxy-7-(3-methoxypropoxy)quinazolin-4-yl)oxy)phenyl)-1,2-dimethyl-4-oxo-1,4-dihydroquinoline-3-carboxamide]
- IC50 (Molm-13 cells): 38.6 ± 18 nM
- IC50 (AXL kinase): 5 nM
- inhibitory activity on AXL kinase (AXL kinase; competitive experiment with ATP, in words): strong inhibitory activity

SMILES: COc1cc2ncnc(Oc3ccc(NC(=O)c4cn5c6c(c(N7CCN(C)CC7)c(F)cc6c4=O)OCN5C)cc3F)c2cc1OC [TL4830039, N-(4-((6,7-dimethoxyquinazolin-4-yl)oxy)-3-fluorophenyl)-9-fluoro-3-methyl-10-(4-methylpiperazin-1-yl)-7-oxo-2,3-dihydro-7H-[1,3,4] oxadiazino[6,5,4-ij]quinoline-6-carboxamide]
- bioavailability [1]: 7.92%
- AUC(0-inf) [1, 3]: 12200 ng·h/mL
- AUC(0-t) [1, 3]: 3800 ng·h/mL
- half-life [1, 3]: 35.5 h
- Cmax [1, 3]: 219 ng/mL
- AUC(0-inf) [1, 4]: 13000 ng·h/mL
- AUC(0-t) [1, 4]: 9600 ng·h/mL
- clearance [1, 4]: 6.5 mL/min/kg
- half-life [1, 4]: 12.7 h
- Cmax [1, 4]: 1140 ng/mL
- Inhibition rate (%) against receptor tyrosine kinase FLT-3 ([2]; compound 10 nM, 0.01 µM): 49.8%
- inhibition at 0.01 µM ([2]; compound 10 nM): 44.7%
- Inhibition rate (%) against receptor tyrosine kinase FLT-3 ([2]; compound 100 nM, 0.1 µM): 57.4%
- inhibition at 0.1 µM ([2]; compound 100 nM): 66.4%
- Inhibition rate (%) against receptor tyrosine kinase FLT-3 ([2]; compound 1000 nM, 1 µM): 80.9%
- inhibition at 1 µM ([2]; compound 1000 nM): 87.6%
- IC50 (AXL kinase): 58 nM

SMILES: CCc1ccc2c(c1)c(=O)c(C(=O)Nc1ccc(Oc3ncnc4cc(OCCN5CCCC5)c(OC)cc34)c(F)c1)c(C)n2C [TL4830058, 6-ethyl-N-(3-fluoro-4-((6-methoxy-7-(2-(pyrrolidin-1-yl)ethoxy)quinazolin-4-yl)oxy)phenyl)-1,2-dimethyl-4-oxo-1,4-dihydroquinoline-3-carboxamide]
- pharmacokinetic parameter, overall judgement ([1]; SD rats, hydrochlorides, in words): appropriate pharmacokinetic parameter
- bioavailability [1]: 28%
- AUC(0-inf) [1, 3]: 50300 ng·h/mL
- AUC(0-t) [1, 3]: 39700 ng·h/mL
- half-life [1, 3]: 11 h
- Cmax [1, 3]: 4090 ng/mL
- AUC(0-inf) [1, 4]: 28700 ng·h/mL
- AUC(0-t) [1, 4]: 28400 ng·h/mL
- clearance [1, 4]: 3 mL/min/kg
- half-life [1, 4]: 4.05 h
- Cmax [1, 4]: 13300 ng/mL
- Inhibition rate (%) against receptor tyrosine kinase FLT-3 ([2]; compound 10 nM, 0.01 µM): 49.4%
- inhibition at 0.01 µM ([2]; compound 10 nM): 54.7%
- Inhibition rate (%) against receptor tyrosine kinase FLT-3 ([2]; compound 100 nM, 0.1 µM): 75.8%
- inhibition at 0.1 µM ([2]; compound 100 nM): 74%
- Inhibition rate (%) against receptor tyrosine kinase FLT-3 ([2]; compound 1000 nM, 1 µM): 92.3%
- inhibition at 1 µM ([2]; compound 1000 nM): 95.2%
- IC50 (AXL kinase): 8 nM
